Measurements as given in patent publication US10167297B2, “Substituted pyridine compounds having herbicidal activity” (BASF SE, priority 2014, dated 2019).

Columns and labels:
Format in all cases: in vivo
[1] = system: Zea mays; assay: greenhouse post-emergence herbicidal activity on crop plant corn (use examples); settings: ZEAMX (corn, crop plant), scale 0 to 100; for plant injury at 250 g/ha: 0.25 kg/ha; for plant injury at 125 g/ha: 0.125 kg/ha; for plant injury at 31 g/ha: 0.031 kg/ha
Text: (§1) The seeds of the test plants were sown separately for each species. For the pre-emergence treatment, the active ingredients, which had been suspended or emulsified in water, were applied directly after sowing by means of finely distributing nozzles. The containers were irrigated gently to promote germination and growth and subsequently covered with transparent plastic hoods until the plants had rooted. This cover caused uniform germination of the test plants, unless this had been impaired by the active ingredients. For the post-emergence treatment, the test plants were first grown to a height of 3 to 15 cm, depending on the plant habit, and only then treated with the active ingredients which had been suspended or emulsified in water. For this purpose, the test plants were either sown directly and grown in the same containers, or they were first grown separately as seedlings and transplanted into the test containers a few days prior to treatment. Depending on the species, the plants were kept at 10-25° C. or 20-35° C., respectively. The test period extended over 2 to 4 weeks. During this time, the plants were tended, and their response to the individual treatments was evaluated. Evaluation was carried out using a scale from 0 to 100. 100 means no emergence of the plants, or complete destruction of at least the aerial moieties, and 0 means no damage, or normal course of growth. A good herbicidal activity is given at values of at least 70 and a very good herbicidal activity is given at values of at least 85. The plants used in the greenhouse experiments were of the following species: [table]

[2] = system: Echinocloa crus-galli; assay: greenhouse post-emergence herbicidal activity (use examples); settings: Echinochloa crus-galli, ECHCG, scale 0 to 100; for pest or weed control at 250 g/ha: 0.25 kg/ha; for pest or weed control at 125 g/ha: 0.125 kg/ha; for pest or weed control at 31 g/ha: 0.031 kg/ha
Text: as §1

[3] = system: Chenopodium album; assay: as above; settings: CHEAL, scale 0 to 100
Text: as §1

[4] = system: Amaranthus retroflexus; assay: as above; settings: AMARE, scale 0 to 100
Text: as §1

[5] = system: Digitaria sanguine; assay: comparative greenhouse post-emergence herbicidal activity; settings: DIGSA, 20 days, scale 0 to 100
Protocol: (§2) The herbicidal activity of the compounds I-5 (N-[2,6-dichloro-3-(8-hydroxy-6,6-dioxo-5H-thiopyrano[4,3-b]pyridin-7-yl)phenyl]-N-methyl-acetamide) and 1-19 (Methyl N-[2,6-dichloro-3-(8-hydroxy-5,5-dimethyl-6,6-dioxo-thiopyrano[4,3-b]pyridin-7-yl)phenyl]-N-methyl-carbamate) according to this invention was tested in comparison with compound I-5 disclosed on page 147 of WO 2012/084755 A1 (not of the invention). These comparative experiments were performed in greenhouse by using the following procedure:
(§3) The culture containers used were plastic flowerpots containing loamy sand with approximately 3.0% of humus as the substrate. The seeds of the test plants were sown separately for each species.
(§4) For the post-emergence treatment, the test plants were first grown to a height of 3 to 15 cm, depending on the plant habit, and only then treated with the active ingredients which had been suspended or emulsified in water using a volume of 375 I/ha and 1% of an Adjuvant. For this purpose, the test plants were either sown directly and grown in the same containers, or they were first grown separately as seedlings and transplanted into the test containers a few days prior to treatment.
(§5) Depending on the species, the plants were kept at 10-25° C. (cold season grasses) or 20-35° C. (warm season grasses), respectively.
(§6) The test period extended over 20 days. During this time, the plants were tended, and their response to the individual treatments was evaluated.
(§7) Evaluation was carried out using a scale from 0 to 100. 100 means complete destruction of at least the aerial moieties, and 0 means no damage, or normal course of growth. A good herbicidal activity is given at values of at least 70 and a very good herbicidal activity is given at values of at least 85.
(§8) The plants used in the greenhouse experiments were of the following species:
(§9) The application rates in the post-emergence treatment were 0.1, 0.05 and 0.025 kg/ha, respectively.

[6] = system: Setaria viridis; assay: as above; settings: SETVI, 20 days, scale 0 to 100
Protocol: as §2, §3, §4, §5, §6, §7, §8, §9

[7] = system: Avena Fatua; assay: as above; settings: AVEFA, 20 days, scale 0 to 100
Protocol: as §2, §3, §4, §5, §6, §7, §8, §9

[8] = system: Echinocloa crus-galli; assay: as above; settings: ECHCG, 20 days, scale 0 to 100
Protocol: as §2, §3, §4, §5, §6, §7, §8, §9

[9] = system: Lolium Multiflori; assay: as above; settings: LOLMU, 20 days, scale 0 to 100
Protocol: as §2, §3, §4, §5, §6, §7, §8, §9

[10] = system: Ambrosia artimisifolio; assay: as above; settings: AMBEL, 20 days, scale 0 to 100
Protocol: as §2, §3, §4, §5, §6, §7, §8, §9

[11] = system: Bromus steliris; assay: as above; settings: BROST, 20 days, scale 0 to 100
Protocol: as §2, §3, §4, §5, §6, §7, §8, §9

[12] = system: Abuthilon avicennae; assay: as above; settings: ABUTH, 20 days, scale 0 to 100
Protocol: as §2, §3, §4, §5, §6, §7, §8, §9

[13] = system: Polygonum convolvulus; assay: as above; settings: POLCO, 20 days, scale 0 to 100
Protocol: as §2, §3, §4, §5, §6, §7, §8, §9

[14] = system: Zea mays; assay: comparative greenhouse post-emergence herbicidal activity on crop plant corn; settings: ZEAMX (corn, crop plant), 20 days, scale 0 to 100
Protocol: as §2, §3, §4, §5, §6, §7, §8, §9

[15] = system: Setaria viridis; assay: greenhouse post-emergence herbicidal activity (use examples); settings: SETVI, scale 0 to 100
Text: as §1

SMILES: O=C1CCCN1c1c(Cl)ccc(C2=C(O)c3ncccc3CS2(=O)=O)c1Cl [Compound I-1, 1-[2,6-dichloro-3-(8-hydroxy-6,6-dioxo-5H-thiopyrano[4,3-b]pyridin-7-yl)phenyl]pyrrolidin-2-one]
- plant injury at 250 g/ha [1]: 0%
- pest or weed control at 250 g/ha [2]: 100%
- Herbicidal activity ([3]; 0.25 kg/ha): 100
- Herbicidal activity ([4]; 0.25 kg/ha): 100

SMILES: CC(=O)N(C)c1c(Cl)ccc(C2=C(O)c3ncccc3CS2(=O)=O)c1Cl [Compound I-5, N-[2,6-dichloro-3-(8-hydroxy-6,6-dioxo-5H-thiopyrano[4,3-b]pyridin-7-yl)phenyl]-N-methyl-acetamide]
- Herbicidal activity ([5]; 0.025 kg/ha): 90
- Herbicidal activity ([5]; 0.05 kg/ha): 95
- Herbicidal activity ([5]; 0.1 kg/ha): 100
- Herbicidal activity ([6]; 0.025 kg/ha): 90
- Herbicidal activity ([6]; 0.05 kg/ha): 90
- Herbicidal activity ([6]; 0.1 kg/ha): 90
- Herbicidal activity ([7]; 0.025 kg/ha): 55
- Herbicidal activity ([7]; 0.05 kg/ha): 85
- Herbicidal activity ([7]; 0.1 kg/ha): 90
- Herbicidal activity ([8]; 0.025 kg/ha): 90
- Herbicidal activity ([8]; 0.05 kg/ha): 100
- Herbicidal activity ([8]; 0.1 kg/ha): 100
- Herbicidal activity ([9]; 0.025 kg/ha): 25
- Herbicidal activity ([9]; 0.05 kg/ha): 55
- Herbicidal activity ([9]; 0.1 kg/ha): 80
- Herbicidal activity ([10]; 0.025 kg/ha): 90
- Herbicidal activity ([10]; 0.05 kg/ha): 100
- Herbicidal activity ([10]; 0.1 kg/ha): 95
- Herbicidal activity ([11]; 0.025 kg/ha): 98
- Herbicidal activity ([11]; 0.05 kg/ha): 98
- Herbicidal activity ([11]; 0.1 kg/ha): 98
- Herbicidal activity ([12]; 0.025 kg/ha): 70
- Herbicidal activity ([12]; 0.05 kg/ha): 80
- Herbicidal activity ([12]; 0.1 kg/ha): 90
- Herbicidal activity ([13]; 0.025 kg/ha): 35
- Herbicidal activity ([13]; 0.05 kg/ha): 45
- Herbicidal activity ([13]; 0.1 kg/ha): 80
- plant injury at 125 g/ha [1]: 10%
- pest or weed control at 125 g/ha [2]: 95%
- Herbicidal activity ([3]; 0.125 kg/ha): 98
- Herbicidal activity ([4]; 0.125 kg/ha): 98
- Herbicidal activity ([14]; 0.025 kg/ha): 15
- Herbicidal activity ([14]; 0.05 kg/ha): 45

SMILES: CC(=O)N(C)c1c(Cl)ccc(C2=C(O)c3ncccc3C(C)(C)S2(=O)=O)c1Cl [Compound I-6, N-[2,6-dichloro-3-(8-hydroxy-5,5-dimethyl-6,6-dioxo-thiopyrano[4,3-b]pyridin-7-yl)phenyl]-N-methyl-acetamide]
- plant injury at 60 g/ha ([1]; 0.060 kg/ha): 30%
- Herbicidal activity ([15]; 0.060 kg/ha): 90
- pest or weed control at 60 g/ha ([2]; 0.060 kg/ha): 90%

SMILES: CC(=O)N(C)c1c(Cl)ccc(C2=C(OC(=O)C(C)(C)C)c3ncccc3CS2(=O)=O)c1Cl [Compound I-7, [7-[3-[acetyl(methyl)amino]-2,4-dichloro-phenyl]-6,6-dioxo-5H-thiopyrano[4,3-b]pyridin-8-yl] 2,2-dimethylpropanoate]
- plant injury at 250 g/ha [1]: 20%
- pest or weed control at 250 g/ha [2]: 98%
- Herbicidal activity ([3]; 0.25 kg/ha): 100
- Herbicidal activity ([4]; 0.25 kg/ha): 95

SMILES: CC(=O)N(C)c1c(Cl)ccc(C2=C(OC(=O)C(C)(C)C)c3ncccc3C(C)(C)S2(=O)=O)c1Cl [Compound I-8, [7-[3-[acetyl(methyl)amino]-2,4-dichloro-phenyl]-5,5-dimethyl-6,6-dioxo-thiopyrano[4,3-b]pyridin-8-yl] 2,2-dimethylpropanoate]
- plant injury at 125 g/ha [1]: 30%
- pest or weed control at 125 g/ha [2]: 98%
- Herbicidal activity ([3]; 0.125 kg/ha): 100
- Herbicidal activity ([4]; 0.125 kg/ha): 98

SMILES: CC(=O)N(C)c1c(Cl)ccc(C2=C(O)c3ncc(F)cc3CS2(=O)=O)c1Cl [Compound I-11, N-[2,6-dichloro-3-(3-fluoro-8-hydroxy-6,6-dioxo-5H-thiopyrano[4,3-b]pyridin-7-yl)phenyl]-N-methyl-acetamide]
- plant injury at 31 g/ha [1]: 15%
- Herbicidal activity ([15]; 0.031 kg/ha): 90
- pest or weed control at 31 g/ha [2]: 90%
- Herbicidal activity ([3]; 0.031 kg/ha): 90

SMILES: CC(=O)N(C)c1c(Cl)ccc(C2=C(OC(=O)C(C)(C)C)c3ncc(F)cc3CS2(=O)=O)c1Cl [Compound I-12, [7-[3-[acetyl(methyl)amino]-2,4-dichloro-phenyl]-3-fluoro-6,6-dioxo-5H-thiopyrano[4,3-b]pyridin-8-yl] 2,2-dimethylpropanoate]
- plant injury at 31 g/ha [1]: 15%
- Herbicidal activity ([15]; 0.031 kg/ha): 75
- pest or weed control at 31 g/ha [2]: 85%
- Herbicidal activity ([3]; 0.031 kg/ha): 90

SMILES: CC(=O)N(C)c1c(Cl)ccc(C2=C(OC(=O)C(C)(C)C)c3ncc(F)cc3C(C)(C)S2(=O)=O)c1Cl [Compound I-13, [7-[3-[acetyl(methyl)amino]-2,4-dichloro-phenyl]-3-fluoro-5,5-dimethyl-6,6-dioxo-thiopyrano[4,3-b]pyridin-8-yl] 2,2-dimethylpropanoate]
- plant injury at 125 g/ha [1]: 15%
- Herbicidal activity ([15]; 0.125 kg/ha): 85
- pest or weed control at 125 g/ha [2]: 95%
- Herbicidal activity ([4]; 0.125 kg/ha): 90

SMILES: CC(=O)N(C)c1c(Cl)ccc(C2=C(O)c3ncc(F)cc3C(C)(C)S2(=O)=O)c1Cl [Compound I-14, N-[2,6-dichloro-3-(3-fluoro-8-hydroxy-5,5-dimethyl-6,6-dioxo-thiopyrano[4,3-b]pyridin-7-yl)phenyl]-N-methyl-acetamide]
- plant injury at 125 g/ha [1]: 30%
- Herbicidal activity ([15]; 0.125 kg/ha): 100
- pest or weed control at 125 g/ha [2]: 98%
- Herbicidal activity ([4]; 0.125 kg/ha): 98
